Laboratory results taken from patent US6756359B2, “C12 modified erythromycin macrolides and ketolides having antibacterial activity” (Chiron Corporation, priority 2001, dated 2004).
≈ marks a conversion by molar mass, not a printed value.

Assays:
Experiment in all cases: Antibacterial activity in vitro, MIC by broth microdilution
[1] = test system: E. faecalis Enfa_29212; assay type: cell-based; conditions: Table 5, Strain ID D: E. faecalis Enfa_29212; unit assumed
Summary of the method: (§1)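 NCCLS microdilution; CAMHB; 2-fold series; 3×10^5–7×10^5 CFU/mL; 35° C., 18-24 h, ambient air except S. pneumoniae (5-10% CO2, lysed horse blood 2-5%). Endpoint: no visible growth.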

[2] = test system: S. aureus Stau_29213; assay type: cell-based; conditions: Table 5, Strain ID A: S. aureus Stau_29213; unit assumed
Summary of the method: as §1

[3] = test system: S. epidermidis Step_14990; assay type: cell-based; conditions: Table 5, Strain ID B: S. epidermidis Step_14990; unit assumed
Summary of the method: as §1

[4] = test system: S. epidermidis Step_f50654 Pen S; assay type: cell-based; conditions: Table 5, Strain ID C: S. epidermidis Step_f50654; unit assumed
Summary of the method: as §1

[5] = test system: S. pyogenes Stpy_8668; assay type: cell-based; conditions: Table 5, Strain ID E: S. pyogenes Stpy_8668
Summary of the method: as §1

[6] = test system: S. pneumoniae Stpn_280-962 Pen S; assay type: cell-based, Streptococcus pneumoniae; conditions: Table 5, Strain ID H: S. pneumoniae Stpn_280-962
Summary of the method: as §1

[7] = test system: S. pneumoniae Stpn_297-749 Pen R; assay type: cell-based, Streptococcus pneumoniae; conditions: Table 5, Strain ID G: S. pneumoniae Stpn_297-749
Summary of the method: as §1

[8] = test system: S. pneumoniae Stpn_49619; assay type: cell-based, Streptococcus pneumoniae; conditions: Table 5, Strain ID F: S. pneumoniae Stpn_49619
Summary of the method: as §1

[9] = test system: S. pneumoniae Stpn_Erm 6849; assay type: cell-based, Streptococcus pneumoniae; conditions: Table 5, Strain ID I: S. pneumoniae Stpn_Erm 6849
Summary of the method: as §1

[10] = test system: S. pneumoniae Stpn_Erm S 4297; assay type: cell-based, Streptococcus pneumoniae; conditions: Table 5, Strain ID J: S. pneumoniae Stpn_Erm S 4297
Summary of the method: as §1

[11] = test system: S. pneumoniae Stpn_Mef 5654; assay type: cell-based, Streptococcus pneumoniae; conditions: Table 5, Strain ID K: S. pneumoniae Stpn_Mef 5654; unit assumed
Summary of the method: as §1

[12] = test system: S. pneumoniae Stpn_Mef S 3427; assay type: cell-based, Streptococcus pneumoniae; conditions: Table 5, Strain ID L: S. pneumoniae Stpn_Mef S 3427
Summary of the method: as §1

[13] = test system: H. influenzae Hain_49247; assay type: cell-based, Haemophilus influenzae; conditions: Table 5, Strain ID M: H. influenzae Hain_49247; unit assumed
Summary of the method: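 Visible-growth inhibition defined the MIC, obtained by NCCLS broth microdilution at 35° C. over 18-24 hours with a final inoculum of 3×10^5–7×10^5 CFU/mL.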

| SMILES | MIC [1] | MIC [2] | MIC [3] | MIC [4] | MIC ([5]; unit assumed) | MIC [6] | MIC [7] | MIC [8] | MIC ([9]; unit assumed) | MIC ([10]; unit assumed) | MIC [11] | MIC [12] | MIC [13] | MIC [5] | MIC [9] | MIC [10] | MIC ([6]; unit assumed) | MIC ([7]; unit assumed) | MIC ([8]; unit assumed) | MIC ([12]; unit assumed) |
| --- | --- | --- | --- | --- | --- | --- | --- | --- | --- | --- | --- | --- | --- | --- | --- | --- | --- | --- | --- | --- |
| CC[C@H]1OC(=O)[C@H](C)C(=O)[C@H](C)[C@@H](OC2O[C@H](C)C[C@H](N(C)C)[C@H]2O)[C@@](C)(OC)C[C@@H](C)C(=O)[C@H](C)[C@H]2N(CCCCc3ccc4ccccc4n3)C(=O)O[C@]12CC (stereo partly drawn) [Example 18, (3aS,4R,7R,9R,10R,11S,13R,15R,15aR)-3a,4-diethyl-11-methoxy-7,9,11,13,15-pentamethyl-2,6,8,14-tetraoxo-1-(4-quinolin-2-ylbutyl)tetradecahydro-2H-oxacyclotetradecino[4,3-d][1,3]oxazol-10-yl 3,4,6-trideoxy-3-(dimethylamino)-D-xylo-hexopyranoside] | 0.1 µg/mL (≈ 0.123 µM) | 0.78 µg/mL (≈ 0.963 µM) | 0.4 µg/mL (≈ 0.494 µM) | 0.78 µg/mL (≈ 0.963 µM) | 0.1 µg/mL (≈ 0.123 µM) | ≦0.05 | ≦0.05 | ≦0.05 | 3.13 µg/mL (≈ 3.86 µM) | 0.2 µg/mL (≈ 0.247 µM) | 0.4 µg/mL (≈ 0.494 µM) | ≦0.05 | 3.13 µg/mL (≈ 3.86 µM) | – | – | – | – | – | – | – |
| CC[C@H]1OC(=O)[C@H](C)C(=O)[C@H](C)[C@@H](OC2O[C@H](C)C[C@H](N(C)C)[C@H]2O)[C@@](C)(OC)C[C@@H](C)C(=O)[C@H](C)[C@H]2N(CCCCn3cc(-c4cccnc4)nc3C)C(=O)O[C@]12CC (stereo partly drawn) [Example 20, (3aS,4R,7R,9R,10R,11S,13R,15R,15aR)-3a,4-diethyl-11-methoxy-7,9,11,13,15-pentamethyl-1-[4-(2-methyl-4-pyridin-3-yl-1H-imidazol-1-yl)butyl]-2,6,8,14-tetraoxotetradecahydro-2H-oxacyclotetradecino[4,3-d][1,3]oxazol-10-yl 3,4,6-trideoxy-3-(dimethylamino)-D-xylo-hexopyranoside] | 0.1 µg/mL (≈ 0.119 µM) | 0.2 µg/mL (≈ 0.238 µM) | 0.1 µg/mL (≈ 0.119 µM) | 0.2 µg/mL (≈ 0.238 µM) | – | ≦0.05 | ≦0.05 | ≦0.05 | – | – | 0.4 µg/mL (≈ 0.476 µM) | ≦0.05 | 6.25 µg/mL (≈ 7.44 µM) | ≦0.05 | ≦0.5 | ≦0.05 | – | – | – | – |
| CC[C@H]1OC(=O)[C@H](C)C(=O)[C@H](C)[C@@H](OC2O[C@H](C)C[C@H](N(C)C)[C@H]2O)[C@@](C)(OC)C[C@@H](C)C(=O)[C@H](C)[C@H]2N(CCCOc3ccc(-c4cccnc4)cc3)C(=O)O[C@]12CC (stereo partly drawn) [Example 36, (3aS,4R,7R,9R,10R,11S,13R,15R,15aR)-3a,4-diethyl-11-methoxy-7,9,11,13,15-pentamethyl-2,6,8,14-tetraoxo-1-[3-(4-pyridin-3-ylphenoxy)propyl]-tetradecahydro-2H-oxacyclotetradecino[4,3-d][1,3]oxazol-10-yl 3,4,6-trideoxy-3-(dimethylamino)-D-xylo-hexopyranoside] | 0.78 µg/mL (≈ 0.931 µM) | 6.25 µg/mL (≈ 7.46 µM) | 1.56 µg/mL (≈ 1.86 µM) | 0.78 µg/mL (≈ 0.931 µM) | 0.4 µg/mL (≈ 0.477 µM) | – | – | – | 0.1 µg/mL (≈ 0.119 µM) | 12.5 µg/mL (≈ 14.9 µM) | 12.5 µg/mL (≈ 14.9 µM) | – | 0.2 µg/mL (≈ 0.239 µM) | – | – | – | 0.1 µg/mL (≈ 0.119 µM) | 0.1 µg/mL (≈ 0.119 µM) | 25 µg/mL (≈ 29.8 µM) | 0.78 µg/mL (≈ 0.931 µM) |
| C=C[C@]12OC(=O)N(CCCC(C)(C)n3cnc(-c4cccnc4)c3)[C@@H]1[C@@H](C)C(=O)[C@H](C)C[C@](C)(OC)[C@H](OC1O[C@H](C)C[C@H](N(C)C)[C@H]1O)[C@@H](C)C(=O)[C@@H](C)C(=O)O[C@@H]2CC (stereo partly drawn) [Example 50, (3aS,4R,7R,9R,10R,11S,13R,15R,15aR)-4-ethyl-11-methoxy-7,9,11,13,15-pentamethyl-1-[4-methyl-4-(4-pyridin-3-yl-1H-imidazol-1-yl)pentyl]-2,6,8,14-tetraoxo-3a-vinyltetradecahydro-2H-oxacyclotetradecino[4,3-d][1,3]oxazol-10-yl 3,4,6-trideoxy-3-(dimethylamino)-D-xylo-hexopyranoside] | 0.2 µg/mL (≈ 0.235 µM) | 0.4 µg/mL (≈ 0.469 µM) | 0.4 µg/mL (≈ 0.469 µM) | 0.2 µg/mL (≈ 0.235 µM) | – | ≦0.05 | ≦0.05 | ≦0.05 | 0.1 µg/mL (≈ 0.117 µM) | – | 0.4 µg/mL (≈ 0.469 µM) | – | 6.25 µg/mL (≈ 7.33 µM) | ≦0.05 | – | ≦0.05 | – | – | – | 0.1 µg/mL (≈ 0.117 µM) |
| CC[C@H]1OC(=O)[C@H](C)C(=O)[C@H](C)[C@@H](OC2O[C@H](C)C[C@H](N(C)C)[C@H]2O)[C@@](C)(OC)C[C@@H](C)C(=O)[C@H](C)[C@H]2N(CCCCn3cnc(-c4ccc(C)nc4)c3)C(=O)O[C@]12CC (stereo partly drawn) [Example 29, (3aS,4R,7R,9R,10R,11S,13R,15R,15aR)-3a,4-diethyl-11-methoxy-7,9,11,13,15-pentamethyl-1-{4-[4-(6-methylpyridin-3-yl)-1H-imidazol-1-yl]butyl}-2,6,8,14-tetraoxotetradecahydro-2H-oxacyclotetradecino[4,3-d][1,3]oxazol-10-yl 3,4,6-trideoxy-3-(dimethylamino)-D-xylo-hexopyranoside] | 0.2 µg/mL (≈ 0.238 µM) | 0.4 µg/mL (≈ 0.476 µM) | 0.2 µg/mL (≈ 0.238 µM) | 0.4 µg/mL (≈ 0.476 µM) | – | ≦0.05 | ≦0.05 | ≦0.05 | 1.56 µg/mL (≈ 1.86 µM) | 0.2 µg/mL (≈ 0.238 µM) | 0.78 µg/mL (≈ 0.928 µM) | – | 6.25 µg/mL (≈ 7.44 µM) | ≦0.05 | – | – | – | – | – | 0.2 µg/mL (≈ 0.238 µM) |
| CC[C@H]1OC(=O)[C@H](C)C(=O)[C@H](C)[C@@H](OC2O[C@H](C)C[C@H](N(C)C)[C@H]2O)[C@@](C)(OC)C[C@@H](C)C(=O)[C@H](C)[C@H]2N(CCCCn3cnc(-c4cnccn4)c3)C(=O)O[C@]12CC (stereo partly drawn) [Example 26, (3aS,4R,7R,9R,10R,11S,13R,15R,15aR)-3a,4-diethyl-11-methoxy-7,9,11,13,15-pentamethyl-2,6,8,14-tetraoxo-1-[4-(4-pyrazin-2-yl-1H-imidazol-1-yl)butyl]tetradecahydro-2H-oxacyclotetradecino [4,3-d][1,3]oxazol-10-yl 3,4,6-trideoxy-3-(dimethylamino)-D-xylo-hexopyranoside] | 0.2 µg/mL (≈ 0.242 µM) | 0.2 µg/mL (≈ 0.242 µM) | 0.2 µg/mL (≈ 0.242 µM) | 0.2 µg/mL (≈ 0.242 µM) | – | ≦0.05 | ≦0.05 | ≦0.05 | 0.2 µg/mL (≈ 0.242 µM) | – | 0.4 µg/mL (≈ 0.484 µM) | – | 3.13 µg/mL (≈ 3.78 µM) | ≦0.05 | – | ≦0.05 | – | – | – | 0.1 µg/mL (≈ 0.121 µM) |
| CC[C@H]1OC(=O)[C@@](C)(F)C(=O)[C@H](C)[C@@H](O[C@@H]2O[C@H](C)C[C@H](N(C)C)[C@H]2O)[C@@](C)(OC)C[C@@H](C)C(=O)[C@H](C)[C@H]2N(CCCC(C)(C)n3cnc4cccnc43)C(=O)O[C@]12CC [Example 40, (3aS,4R,7S,9R,10R,11S,13R,15R,15aR)-3a,4-diethyl-7-fluoro-1-[4-(3H-imidazo[4,5-b]pyridin-3-yl)-4-methylpentyl]-11-methoxy-7,9,11,13,15-pentamethyl-2,6,8,14-tetraoxotetradecahydro-2H-oxacyclotetradecino[4,3-d][1,3]oxazol-10-yl 3,4,6-trideoxy-3-(dimethylamino)-D-xylo-hexopyranoside] | 0.1 µg/mL (≈ 0.118 µM) | 0.2 µg/mL (≈ 0.236 µM) | 0.2 µg/mL (≈ 0.236 µM) | 0.2 µg/mL (≈ 0.236 µM) | – | ≦0.05 | ≦0.05 | ≦0.05 | 0.2 µg/mL (≈ 0.236 µM) | – | 0.78 µg/mL (≈ 0.922 µM) | – | 6.25 µg/mL (≈ 7.39 µM) | ≦0.05 | – | ≦0.05 | – | – | – | 0.2 µg/mL (≈ 0.236 µM) |
